# Data as given in publication PMC3549271 (ACS medicinal chemistry letters, 2012).
# Legend:
# [1] = molecular target: human A2A adenosine receptor (hA2AAR) (Homo sapiens, UniProt P29274); test: radioligand binding assay at human A2AAR; conditions: free energy of binding divided by the number of heavy atoms
# A2BAR = molecular target: T1, A2BAR (Homo sapiens, UniProt P29275); assay type: cell-based
# T1 sequence (P29275 1-332): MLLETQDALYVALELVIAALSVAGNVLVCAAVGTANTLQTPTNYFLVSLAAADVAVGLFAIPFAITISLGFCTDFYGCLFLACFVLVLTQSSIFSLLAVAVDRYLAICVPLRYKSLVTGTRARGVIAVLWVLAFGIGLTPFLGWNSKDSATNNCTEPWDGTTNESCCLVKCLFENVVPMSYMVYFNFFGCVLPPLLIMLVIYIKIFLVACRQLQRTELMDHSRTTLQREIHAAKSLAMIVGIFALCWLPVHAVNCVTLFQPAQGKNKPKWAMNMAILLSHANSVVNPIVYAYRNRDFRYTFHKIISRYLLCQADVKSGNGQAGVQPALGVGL
# [2] = molecular target: T2, human A1 adenosine receptor (hA1AR) (Homo sapiens, UniProt P30542); test: radioligand binding assay at human A1AR; conditions: read-out: % inhibition at 10μM A1
# T2 sequence (P30542 1-326): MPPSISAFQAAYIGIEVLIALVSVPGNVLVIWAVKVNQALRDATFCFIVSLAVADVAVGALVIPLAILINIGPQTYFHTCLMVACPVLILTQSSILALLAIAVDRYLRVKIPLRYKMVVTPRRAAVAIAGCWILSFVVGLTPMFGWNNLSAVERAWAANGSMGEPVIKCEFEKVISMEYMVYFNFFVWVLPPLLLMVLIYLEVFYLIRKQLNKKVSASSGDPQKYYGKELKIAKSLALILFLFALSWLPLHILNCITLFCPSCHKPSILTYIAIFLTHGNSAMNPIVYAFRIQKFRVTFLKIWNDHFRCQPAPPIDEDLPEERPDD
# Chain of human A2A adenosine receptor (hA2AAR) (P29274 whole entry): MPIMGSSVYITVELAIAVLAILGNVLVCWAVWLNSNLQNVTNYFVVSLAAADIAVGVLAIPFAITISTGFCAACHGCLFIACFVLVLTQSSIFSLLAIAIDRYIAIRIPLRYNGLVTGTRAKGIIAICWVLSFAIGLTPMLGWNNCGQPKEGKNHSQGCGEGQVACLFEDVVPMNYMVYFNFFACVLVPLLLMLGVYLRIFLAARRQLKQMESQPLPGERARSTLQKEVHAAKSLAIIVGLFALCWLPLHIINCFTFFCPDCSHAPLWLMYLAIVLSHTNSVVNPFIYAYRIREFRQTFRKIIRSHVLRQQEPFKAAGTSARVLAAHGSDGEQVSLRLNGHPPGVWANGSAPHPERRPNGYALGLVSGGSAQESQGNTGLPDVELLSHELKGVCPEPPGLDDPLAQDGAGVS
SMILES,ligand efficiency (LE) [1],"% inhibition at 10μM A2B (inhibition of cAMP accumulation) (A2BAR; 10 μM compound, in the presence of 300 nM NECA, three independent experiments)",inhibition at 10 µM [2] [%],inhibition at 10 µM (A2BAR; read-out: % inhibition at 10μM A2B (inhibition of cAMP accumulation)) [%]
Cc1cccc(O[C@H](C)C(=O)Nc2nc(-c3ccccc3)n[nH]2)c1 [Compound 1],0.34,no significant activity,19,
Cc1ccc(O[C@H](C)C(=O)Nc2nc(-c3ccco3)n[nH]2)cc1 [Compound 24],,,,-15
CCCC(=O)Nc1nc(-c2ccccc2)n[nH]1 [Compound 27],0.48,,,
O=C(Nc1nc(-c2ccccc2)n[nH]1)c1ccccc1 [Compound 29],0.44,,,
COc1ccccc1C(=O)Nc1nc(-c2ccccc2)n[nH]1 [Compound 32],0.42,,,
